Read-outs that look alike come from different tables or passages of the source.
Columns and labels:
[1] = test system: NCI-H358 cells (K-Ras G12C); assay: Potency assay: pERK in NCI-H358 cells; assay type: cell-based, human; conditions: Homo sapiens, NCI-H358; H358 KRAS G12C; read-out: pERK EC50
In short: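 pERK decrease read by AlphaLISA SureFire p-ERK1/2 or In-Cell Western after 4 h compound exposure at 37 °C, 5% CO2.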

[2] = molecular target: KRAS G12D (Homo sapiens (Human), UniProt P01116+P62937, G12D); assay: Ras-Raf (BRAF RBD) disruption / FRET / MOA assay, KRAS G12D; assay type: biochemical; conditions: Ras-Raf disruption/FRET/MOA assay; class symbols; read-out: KRAS G12D FRET data IC50
In short: (§1)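 TR-FRET read-out: a drop in ratio relative to DMSO wells marks disruption of the Ras:RAF complex, reported as IC50. Compounds (3-fold series, 10 points, top 30 μM final) incubated 3 h at 25° C before Eu-anti-His 10 nM and APC-anti-GST 50 nM, 1.5 h more.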

[3] = test system: NCI-H358 (K-Ras G12C); assay: CellTiter-Glo cell viability assay, NCI-H358; assay type: cell-based, human; conditions: NCI-H358, 5-day treatment, class symbols, read-out: Additional H358 Cell Viability assay data (K-Ras G12C, IC50)
In short: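 Cells seeded, compound added directly, 5-day exposure. Plates to RT ~30 min, CellTiter-Glo luminescence read. Normalized to DMSO avg (x100); 4-parameter logistic fit.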

[4] = molecular target: KRAS G13D (Homo sapiens (Human), UniProt P01116+P62937, G13D); assay: Ras-Raf (BRAF RBD) disruption / FRET / MOA assay, KRAS G13D; assay type: biochemical; conditions: read-out: IC50* KRAS G13D FRET data
In short: as §1

[5] = molecular target: NRAS G12C (Homo sapiens (Human), UniProt P01111+P62937, G12C); assay: Ras-Raf (BRAF RBD) disruption / FRET / MOA assay, NRAS G12C; assay type: biochemical; conditions: read-out: IC50* NRAS G12C FRET data
In short: as §1

[6] = molecular target: KRAS G12S (Homo sapiens (Human), UniProt P01116+P62937, G12S); assay: Ras-Raf (BRAF RBD) disruption / FRET / MOA assay, KRAS G12S; assay type: biochemical; conditions: Ras-Raf disruption/FRET/MOA assay; class symbols; read-out: KRAS G12S FRET data IC50
In short: as §1

[7] = molecular target: K-Ras G13C (Homo sapiens (Human), UniProt P01116+P62937, G13C); assay: Ras-Raf (BRAF RBD) disruption / FRET / MOA assay, KRAS G13C; assay type: biochemical; conditions: KRAS G13C; Ras-Raf disruption/FRET/MOA assay; read-out: IC50* KRAS G13C FRET data
In short: as §1

[8] = molecular target: K-Ras G12C (Homo sapiens (Human), UniProt P01116+P62937, G12C); assay: Ras-Raf (BRAF RBD) disruption / FRET / MOA assay, KRAS G12C; assay type: biochemical; conditions: KRAS G12C; Ras-Raf disruption/FRET/MOA assay; read-out: IC50* KRAS G12C FRET data
In short: as §1

[9] = molecular target: KRAS WT (Homo sapiens (Human), UniProt P01116+P62937); assay: Ras-Raf (BRAF RBD) disruption / FRET / MOA assay, KRAS WT; assay type: biochemical; conditions: read-out: IC50* KRAS WT FRET data
In short: as §1

[10] = molecular target: KRAS G12V (Homo sapiens (Human), UniProt P01116+P62937, G12V); assay: Ras-Raf (BRAF RBD) disruption / FRET / MOA assay, KRAS G12V; assay type: biochemical; conditions: read-out: IC50* KRAS G12V FRET data
In short: as §1

KRAS G12V, sequence (P01116-2 other isoform, or with tags, fused parts or gaps G12V): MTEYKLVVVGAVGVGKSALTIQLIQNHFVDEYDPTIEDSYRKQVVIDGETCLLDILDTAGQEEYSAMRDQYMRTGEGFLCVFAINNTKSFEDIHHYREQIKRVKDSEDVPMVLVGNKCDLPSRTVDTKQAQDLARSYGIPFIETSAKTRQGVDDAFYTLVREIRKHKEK
KRAS G12V, sequence (P62937 whole entry): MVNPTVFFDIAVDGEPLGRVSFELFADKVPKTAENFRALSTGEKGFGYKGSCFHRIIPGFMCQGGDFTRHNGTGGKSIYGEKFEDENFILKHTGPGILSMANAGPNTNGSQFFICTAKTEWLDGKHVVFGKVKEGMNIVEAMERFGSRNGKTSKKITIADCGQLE
K-Ras G13C, sequence (P01116-2 other isoform, or with tags, fused parts or gaps G13C): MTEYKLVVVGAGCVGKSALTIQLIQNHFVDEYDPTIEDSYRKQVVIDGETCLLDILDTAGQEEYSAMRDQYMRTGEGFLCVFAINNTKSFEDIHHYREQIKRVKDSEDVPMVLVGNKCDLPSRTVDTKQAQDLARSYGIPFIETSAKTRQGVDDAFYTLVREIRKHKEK
K-Ras G13C, sequence (P62937 whole entry): as the sequence (P62937 whole entry) above
KRAS G12S, sequence (P01116-2 other isoform, or with tags, fused parts or gaps G12S): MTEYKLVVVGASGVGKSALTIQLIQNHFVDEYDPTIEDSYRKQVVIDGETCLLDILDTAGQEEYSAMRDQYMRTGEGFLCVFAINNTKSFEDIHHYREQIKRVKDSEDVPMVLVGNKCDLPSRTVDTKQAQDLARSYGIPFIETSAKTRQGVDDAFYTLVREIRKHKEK
KRAS G12S, sequence (P62937 whole entry): as the sequence (P62937 whole entry) above
K-Ras G12C, sequence (P01116-2 other isoform, or with tags, fused parts or gaps G12C): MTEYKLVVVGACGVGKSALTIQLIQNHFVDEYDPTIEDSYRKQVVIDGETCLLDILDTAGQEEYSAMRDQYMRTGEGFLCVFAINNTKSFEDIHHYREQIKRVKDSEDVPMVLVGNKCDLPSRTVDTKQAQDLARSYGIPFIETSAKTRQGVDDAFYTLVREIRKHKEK
K-Ras G12C, sequence (P62937 whole entry): as the sequence (P62937 whole entry) above
NRAS G12C, sequence (P01111 whole entry G12C): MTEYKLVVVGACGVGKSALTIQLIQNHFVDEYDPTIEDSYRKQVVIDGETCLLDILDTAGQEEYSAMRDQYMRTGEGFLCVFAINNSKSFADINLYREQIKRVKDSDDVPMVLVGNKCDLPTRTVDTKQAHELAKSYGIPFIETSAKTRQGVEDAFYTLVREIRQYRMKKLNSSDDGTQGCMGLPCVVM
NRAS G12C, sequence (P62937 whole entry): as the sequence (P62937 whole entry) above
KRAS G12D, sequence (P01116-2 other isoform, or with tags, fused parts or gaps G12D): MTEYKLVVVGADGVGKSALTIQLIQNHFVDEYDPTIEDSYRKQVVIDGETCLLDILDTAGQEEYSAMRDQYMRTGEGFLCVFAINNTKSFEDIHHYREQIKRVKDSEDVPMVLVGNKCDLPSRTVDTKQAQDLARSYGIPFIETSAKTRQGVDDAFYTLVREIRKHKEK
KRAS G12D, sequence (P62937 whole entry): as the sequence (P62937 whole entry) above
KRAS WT, sequence (P01116-2 other isoform, or with tags, fused parts or gaps): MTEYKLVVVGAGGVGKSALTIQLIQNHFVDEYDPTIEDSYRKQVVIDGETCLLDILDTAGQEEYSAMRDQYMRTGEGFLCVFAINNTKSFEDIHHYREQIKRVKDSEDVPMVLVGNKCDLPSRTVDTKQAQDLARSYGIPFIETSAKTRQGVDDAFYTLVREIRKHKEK
KRAS WT, sequence (P62937 whole entry): as the sequence (P62937 whole entry) above
KRAS G13D, sequence (P01116-2 other isoform, or with tags, fused parts or gaps G13D): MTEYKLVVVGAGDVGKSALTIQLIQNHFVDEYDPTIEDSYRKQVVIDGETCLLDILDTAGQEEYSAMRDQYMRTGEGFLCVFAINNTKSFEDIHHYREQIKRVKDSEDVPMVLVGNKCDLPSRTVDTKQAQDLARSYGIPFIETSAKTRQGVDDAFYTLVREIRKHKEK
KRAS G13D, sequence (P62937 whole entry): as the sequence (P62937 whole entry) above

SMILES | EC50 [1] [nM] | IC50 [2] [nM] | IC50 ([3]; Homo sapiens, NCI-H358, 120 h) [nM] | IC50 [4] [nM] | IC50 [5] [nM] | IC50 [6] [nM] | IC50 [7] [nM] | IC50 [8] [nM] | IC50 [9] [nM] | IC50 [10] [nM] | IC50 [3] [nM]
CCn1c(-c2cccnc2[C@H](C)OC)c2c3cc(ccc31)-c1csc(n1)C[C@H](NC(=O)[C@H](C(C)C)N(C)C(=O)N1CCN(C(=O)C#CC(C)(C)N(C)C)CC1)C(=O)N1CCC[C@H](N1)C(=O)OCC(C)(C)C2 (atropisomer, axis not shown) [Example A479] | < 5000 | 100 to 1000 | < 10 | 100 to 1000 | < 10 | 10 to 100 | 10 to 100 | < 10 | 10 to 100 | 10 to 100 | 
CCn1c(-c2cccnc2[C@H](C)OC)c2c3cc(ccc31)-c1cccc(c1)C[C@H](NC(=O)[C@H](C(C)C)N(C)C(=O)[C@H]1CCN(C(=O)/C=C/C(F)F)C1)C(=O)N1CCC[C@H](N1)C(=O)OCC(C)(C)C2 (atropisomer, axis not shown) [Example A485] | < 5000 | > 10000 | < 10 | 1000 to 10000 | 10 to 100 | 1000 to 10000 | 100 to 1000 | 10 to 100 | 1000 to 10000 | 1000 to 10000 | 
CC#CC(=O)N1CC[C@@H](C(=O)N(C)[C@H](C(=O)N[C@H]2Cc3cccc(c3)-c3ccc4c(c3)c(c(-c3cccnc3[C@H](C)OC)n4CC)CC(C)(C)COC(=O)[C@@H]3CCCN(N3)C2=O)C(C)C)C1 (atropisomer, axis not shown) [Example A487] | < 5000 | 1000 to 10000 | 10 to 100 | 1000 to 10000 | 100 to 1000 | 1000 to 10000 | 100 to 1000 | 100 to 1000 | 1000 to 10000 | 1000 to 10000 | 
CCn1c(-c2cccnc2[C@H](C)OC)c2c3cc(ccc31)-c1csc(n1)C[C@H](NC(=O)[C@H](C)N(C)C(=O)[C@H]1CCN(C(=O)C#CC(C)(C)N3CCC3)C1)C(=O)N1CCC[C@H](N1)C(=O)OCC(C)(C)C2 (atropisomer, axis not shown) [Example A489] | < 5000 | > 10000 | 10 to 100 | 1000 to 10000 | 10 to 100 | 1000 to 10000 | 1000 to 10000 | 10 to 100 | 1000 to 10000 | 1000 to 10000 | 
C=CC(=O)NC1CN(C(=O)N(C)[C@H](C(=O)N[C@H]2Cc3nc(cs3)-c3ccc4c(c3)c(c(-c3cccnc3[C@H](C)OC)n4CC)CC(C)(C)COC(=O)[C@@H]3CCCN(N3)C2=O)C(C)C)C1 (atropisomer, axis not shown) [Example A490] | < 5000 | 1000 to 10000 | 10 to 100 | 100 to 1000 | 10 to 100 | 100 to 1000 | 100 to 1000 | 10 to 100 | 100 to 1000 | 100 to 1000 | 
C=CC(=O)N1C[C@@H](C)[C@H](C(=O)N(C)[C@H](C(=O)N[C@H]2Cc3cccc(c3)-c3ccc4c(c3)c(c(-c3cccnc3[C@H](C)OC)n4CC)CC(C)(C)COC(=O)[C@@H]3CCCN(N3)C2=O)C(C)C)C1 (atropisomer, axis not shown) [Example A497] | < 5000 | > 10000 | 10 to 100 | > 10000 | 100 to 1000 | > 10000 | 100 to 1000 | 100 to 1000 | 1000 to 10000 | > 10000 | 
CCn1c(-c2cccnc2[C@H](C)OC)c2c3cc(ccc31)-c1cccc(c1)C[C@H](NC(=O)[C@H](C(C)C)N(C)C(=O)[C@H]1CCN(C(=O)C#CC3(N(C)C)CN(C)C3)C1)C(=O)N1CCC[C@H](N1)C(=O)OCC(C)(C)C2 (atropisomer, axis not shown) [Example A499] | < 5000 | 1000 to 10000 | 10 to 100 | 1000 to 10000 | 10 to 100 | 1000 to 10000 | 1000 to 10000 | 10 to 100 | 1000 to 10000 | 1000 to 10000 | 
C=CC(=O)N1CC[C@](F)(C(=O)N(C)[C@H](C(=O)N[C@H]2Cc3cccc(c3)-c3ccc4c(c3)c(c(-c3cccnc3[C@H](C)OC)n4CC)CC(C)(C)COC(=O)[C@@H]3CCCN(N3)C2=O)C(C)C)C1 (atropisomer, axis not shown) [Example A501] | < 5000 | 1000 to 10000 | 10 to 100 | 1000 to 10000 | 10 to 100 | 1000 to 10000 | 100 to 1000 | 10 to 100 | 100 to 1000 | 1000 to 10000 | 
CC#CC(=O)N1CC[C@]2(CCN([C@H](C(=O)N[C@H]3Cc4nc(cs4)-c4ccc5c(c4)c(c(-c4cccnc4[C@H](C)OC)n5CC)CC(C)(C)COC(=O)[C@@H]4CCCN(N4)C3=O)C(C)C)C2=O)C1 (atropisomer, axis not shown) [Example A511] | < 5000 | > 10000 | < 10 | 1000 to 10000 | 100 to 1000 | 1000 to 10000 | 1000 to 10000 | 100 to 1000 | 1000 to 10000 | 1000 to 10000 | 
C=CC(=O)N1CC[C@H](C(=O)N(C)[C@H](C(=O)N[C@H]2Cc3cccc(c3)-c3ccc4c(c3)c(c(-c3cccnc3[C@@H]3CCCO3)n4CC)CC(C)(C)COC(=O)[C@@H]3CCCN(N3)C2=O)C(C)C)C1 (atropisomer, axis not shown) [Example A512] | < 5000 | > 10000 | 10 to 100 | > 10000 | 100 to 1000 | 1000 to 10000 | 1000 to 10000 | 100 to 1000 | 1000 to 10000 | 1000 to 10000 | 
C=CC(=O)N1CC[C@H](C(=O)N(C)[C@H](C(=O)N[C@H]2Cc3cccc(c3)-c3ccc4c(c3)c(c(-c3cc(C5=CCN(C)CC5)cnc3[C@H](C)OC)n4CC)CC(C)(C)COC(=O)[C@@H]3CCCN(N3)C2=O)C(C)C)C1 (atropisomer, axis not shown) [Example A513] | < 5000 | 1000 to 10000 |  | 1000 to 10000 | 10 to 100 | 1000 to 10000 | 100 to 1000 | 10 to 100 | 1000 to 10000 | 1000 to 10000 | < 10
C=CC(=O)N1CC(F)(C(=O)N(C)[C@H](C(=O)N[C@H]2Cc3cccc(c3)-c3ccc4c(c3)c(c(-c3cccnc3[C@H](C)OC)n4CC)CC(C)(C)COC(=O)[C@@H]3CCCN(N3)C2=O)C(C)C)C1 (atropisomer, axis not shown) [Example A517] | < 5000 | 1000 to 10000 | < 10 | 1000 to 10000 | 10 to 100 | 100 to 1000 | 10 to 100 | 10 to 100 | 100 to 1000 | 100 to 1000 | 
C=CC(=O)N1CCC(F)(C(=O)N(C)[C@H](C(=O)N[C@H]2Cc3cccc(c3)-c3ccc4c(c3)c(c(-c3cccnc3[C@H](C)OC)n4CC)CC(C)(C)COC(=O)[C@@H]3CCCN(N3)C2=O)C(C)C)CC1 (atropisomer, axis not shown) [Example A518] | < 5000 | 1000 to 10000 | < 10 | 100 to 1000 | 10 to 100 | 100 to 1000 | 100 to 1000 | 10 to 100 | 100 to 1000 | 100 to 1000 | 
